# Measured values: patent publication US7863465B2, “Antifungal agents” (Merck Sharp & Dohme Corp., priority 2006, dated 2011)
# pIC50: −log10 of the molar value.
# Target: T1, glucan synthase (GS) prepared from Candida albicans MY1055 (Candida albicans, UniProt O13428)
# T1 construct: Extraction of GS activity from membranes was performed at a protein concentration of 5 mg/mL in extraction buffer; endogenous in cells; host or cells: Candida albicans MY1055 (membranes, detergent extract, product entrapment)
# T1 sequence (O13428 1-1897): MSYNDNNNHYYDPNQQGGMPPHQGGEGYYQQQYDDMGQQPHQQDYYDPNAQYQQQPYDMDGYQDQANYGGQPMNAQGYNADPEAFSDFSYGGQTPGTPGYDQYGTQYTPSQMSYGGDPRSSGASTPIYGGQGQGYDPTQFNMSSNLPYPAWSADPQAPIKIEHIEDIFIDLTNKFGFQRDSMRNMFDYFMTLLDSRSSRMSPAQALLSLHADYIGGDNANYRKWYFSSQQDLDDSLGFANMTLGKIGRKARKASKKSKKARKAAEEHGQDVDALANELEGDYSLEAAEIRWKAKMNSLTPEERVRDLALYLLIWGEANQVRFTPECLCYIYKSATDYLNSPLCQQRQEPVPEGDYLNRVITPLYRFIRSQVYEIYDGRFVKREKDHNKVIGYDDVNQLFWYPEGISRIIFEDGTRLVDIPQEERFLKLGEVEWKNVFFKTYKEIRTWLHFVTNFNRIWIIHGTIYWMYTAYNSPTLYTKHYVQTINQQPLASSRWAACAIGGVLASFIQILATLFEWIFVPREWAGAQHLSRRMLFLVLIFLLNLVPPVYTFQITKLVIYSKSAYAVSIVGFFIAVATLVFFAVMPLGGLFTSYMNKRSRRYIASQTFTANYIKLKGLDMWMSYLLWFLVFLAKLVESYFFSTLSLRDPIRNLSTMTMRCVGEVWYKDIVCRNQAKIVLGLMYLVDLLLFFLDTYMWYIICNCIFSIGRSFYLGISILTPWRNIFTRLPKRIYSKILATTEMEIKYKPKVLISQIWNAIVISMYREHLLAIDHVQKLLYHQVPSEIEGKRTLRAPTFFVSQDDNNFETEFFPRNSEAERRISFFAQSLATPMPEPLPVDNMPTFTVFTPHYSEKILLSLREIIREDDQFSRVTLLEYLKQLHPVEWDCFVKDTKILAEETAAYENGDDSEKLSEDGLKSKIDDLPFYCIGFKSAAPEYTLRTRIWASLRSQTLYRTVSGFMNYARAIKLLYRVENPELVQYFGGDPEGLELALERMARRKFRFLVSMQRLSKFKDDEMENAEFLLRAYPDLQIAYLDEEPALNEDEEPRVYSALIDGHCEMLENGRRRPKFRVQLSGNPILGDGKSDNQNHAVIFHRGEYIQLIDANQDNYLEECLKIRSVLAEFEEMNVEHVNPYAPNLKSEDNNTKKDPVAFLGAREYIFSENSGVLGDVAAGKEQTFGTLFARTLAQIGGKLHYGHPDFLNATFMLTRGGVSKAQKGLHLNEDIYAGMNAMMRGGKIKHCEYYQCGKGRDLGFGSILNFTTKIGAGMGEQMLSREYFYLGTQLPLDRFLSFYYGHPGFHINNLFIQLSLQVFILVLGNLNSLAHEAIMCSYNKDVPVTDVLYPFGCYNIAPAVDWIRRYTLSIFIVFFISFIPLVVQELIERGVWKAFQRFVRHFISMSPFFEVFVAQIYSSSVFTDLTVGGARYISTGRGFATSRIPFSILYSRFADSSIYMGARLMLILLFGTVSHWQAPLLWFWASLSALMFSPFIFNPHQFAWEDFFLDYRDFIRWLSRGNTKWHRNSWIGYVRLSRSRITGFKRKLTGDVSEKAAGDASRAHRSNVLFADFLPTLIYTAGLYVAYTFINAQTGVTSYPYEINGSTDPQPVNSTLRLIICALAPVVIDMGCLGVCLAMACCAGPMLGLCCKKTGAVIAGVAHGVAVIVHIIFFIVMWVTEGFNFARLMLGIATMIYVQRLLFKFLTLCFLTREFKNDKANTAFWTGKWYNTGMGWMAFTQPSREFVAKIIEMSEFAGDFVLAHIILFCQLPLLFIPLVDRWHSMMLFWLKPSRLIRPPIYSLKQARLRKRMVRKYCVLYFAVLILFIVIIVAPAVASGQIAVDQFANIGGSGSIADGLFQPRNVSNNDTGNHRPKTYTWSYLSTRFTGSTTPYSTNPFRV
# T1 sequence (O42825 whole entry partner): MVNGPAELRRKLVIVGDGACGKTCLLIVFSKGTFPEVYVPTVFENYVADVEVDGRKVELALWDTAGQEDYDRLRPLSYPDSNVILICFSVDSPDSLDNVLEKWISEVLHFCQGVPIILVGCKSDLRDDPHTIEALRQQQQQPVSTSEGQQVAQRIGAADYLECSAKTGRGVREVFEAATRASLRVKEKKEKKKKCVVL
# Experiment: Glucan synthase inhibition (polymerization assay, 96-well, 3H-UDPG incorporation)
# Format: biochemical
# Details: glucan synthase from C. albicans MY1055
# Protocol: The in vitro evaluation of glucan synthase inhibitory activity of compounds was measured in a polymerization assay in 96-well format. Each well contained 100 μL of ^3H-UDPG at 0.5 mM (6000 to 8000 dpm/nmol), 50 mM HEPES pH 7.5 (Sigma), 10% w/v glycerol (Sigma), 1.5 mg/mL bovine serum albumin (Sigma A 9647. Lot 44H0190), 25 mM KF (Fisher), 1 mM EDTA (Gibco Ultrapure), 25 μM GTP-γ-S, enzyme sufficient to give 3 to 6 nmoles incorporation during the 60 min incubation at 22° C., and test compound added from wells in 3-fold serial dilutions in 100% DMSO (1 μL/well). The reaction was stopped by the addition of 100 μL of 20% trichloroacetic acid. Plates were chilled for a minimum of 10 min, and precipitated glucan collected by filtration on GF/C plates (Packard Unifilter®-96), washed with 5 cycles of water (about 1 mL/well each cycle) using a Packard Filtermate Harvester. 40 μL/well scintillation fluid (Packard Ultima Gold TM-XR) was added and the sealed plates counted in a Wallac Beta counter in top-counting mode at an efficiency of approximately 40%.
# Stock solutions were stored at 10 mg/mL in DMSO at −20° C. For each new enzyme preparation, the initial titration performed started at 1 mg/mL, which was prepared by making a 10-fold dilution in DMSO (5 μL to 50 μL). 40 μL of this stock was placed in column 12 of a round-bottomed 96-well microtiter plate. 40 μL DMSO was added to columns 1 to 11 in the same row and ten 3-fold serial dilutions performed, by transferring 20 μL from column 12 to column 11 etc., with 4 mixings before each transfer. No test compound was transferred to from column 2 to column 1. Duplicate aliquots of 1 μL of all 12 dilutions were then transferred to the side walls of a 96-well Bioblock 1.1 mL plate (Fisherbrand) to create two rows.
# The results were tabulated and a standard plate background was subtracted and the net count transpose-pasted into a Prism file, with final compound concentrations used in ng/mL. Graphs were created in Prism software, using the average of two determinations, and using Prism's curve fitting program (sigmoidal dose response non-linear regression).
# Routine analysis was performed with glucan synthase (GS) prepared from Candida albicans MY1055 by the following procedure: MY1055 was grown in 10 liters YPD medium (10 g yeast extract, 20 g tryptone, 20 g glucose per liter) with vigorous shaking at 30° C., to early stationary phase. Cells were harvested by centrifugation, the pellet was washed and frozen at −70° C. until breakage. Thawed pellets were shaken with an equal volume of breakage buffer (50 mM HEPES pH 7.4, 10% glycerol, 1 mM EDTA, 1 mM PMSF, 1 mM DTT) and 4 times their weight of 0.5 mm acid washed glass beads for 2 hours at 4° C. Extent of breakage was assessed visually at 40× magnification. For C. parapsilosis strains, shaking was extended to 3 hours to maximize breakage. After low speed centrifugation to remove cell debris, the supernatant was centrifuged at 100,000×g for 60 min. to separate membranes plus ribosomes from cytoplasmic components. Membranes were further washed two additional times with breakage buffer using the same centrifugation conditions and finally suspended in breakage buffer at 25 to 30 mg/mL protein (Biorad) for storage at −70° C. Extraction of GS activity from membranes was performed at a protein concentration of 5 mg/mL in extraction buffer (50 mM NaPO4 pH 7.5, 0.1 M KCl, 0.1M Na citrate, 20% glycerol, 5 μM GTP-γ-S, 1 mM DTT, 1 mM PMSF, 3 μg/mL pepstatin) plus 0.25% W1 by gentle mixing at 4° C. for 60 min, followed by centrifugation at 100,000×g for 60 min. After centrifugation, clear supernatant was removed from a pellet consisting of a hard layer usually with small amounts of gelatinous unextracted membranes above it. […]
row,pIC50,Compound
1,7.09,"CC(=O)O[C@@H]1C[C@@]23COC[C@](C)([C@@H]2CC[C@H]2C3=CC[C@@]3(C)[C@H](C(=O)O)[C@@](C)([C@H](C)C(C)C)CC[C@]23C)[C@H]1OCCN [Example 1, (1S,2R,3R,4aR,6aS,7R,8R,10aR,10bR,12aR)-3-(acetyloxy)-2-(2-aminoethoxy)-8-[(1R)-1,2-dimethylpropyl]-1,6a,8,10a-tetramethyl-1,3,4,6,6a,7,8,9,10,10a,10b,11,12,12a-tetradecahydro-2H-1,4a-(methanooxymethano)chrysene-7-carboxylic acid]"
2,7.41,"CC(=O)O[C@@H]1C[C@@]23COC[C@](C)(C2CC[C@H]2C3=CC[C@@]3(C)[C@H](C(=O)O)[C@@](C)([C@H](C)C(C)C)CC[C@]23C)[C@H]1OCC(C)N (stereo partly drawn) [Example 2, (1S,2R,3R,4aR,6aS,7R,8R,10aR,10bR,12aR)-3-(Acetyloxy)-2-(2-aminopropoxy)-8-[(1R)-1,2-dimethylpropyl]-1,6a,8,10a-tetramethyl-1,3,4,6,6a,7,8,9,10,10a,10b,11,12,12a-tetradecahydro-2H-1,4a-(methanooxymethano)chrysene-7-carboxylic acid]"
3,6.90,"CC(=O)O[C@@H]1C[C@@]23COC[C@](C)([C@@H]2CC[C@H]2C3=CC[C@@]3(C)[C@H](C(=O)O)[C@@](C)([C@H](C)C(C)C)CC[C@]23C)[C@H]1OCCNC(=O)C(N)CN (stereo partly drawn) [Example 5, (1S,2R,3R,4aR,6aS,7R,8R,10aR,10bR,12aR)-3-(acetyloxy)-2-[2-(2,3-diaminopropionylamino)-ethoxy]-8-[(1R)-1,2-dimethylpropyl]-1,6a,8,10a-tetramethyl-1,3,4,6,6a,7,8,9,10,10a,10b,11,12,12a-tetradecahydro-2H-1,4a-(methanooxymethano)chrysene-7-carboxylic acid]"
4,7.71,"CC(=O)O[C@@H]1C[C@@]23COC[C@](C)([C@@H]2CC[C@H]2C3=CC[C@@]3(C)[C@H](C(=O)O)[C@@](C)([C@H](C)C(C)C)CC[C@]23C)[C@H]1OCCNC(=N)N [Example 6, (1S,2R,3R,4aR,6aS,7R,8R,10aR,10bR,12aR)-3-(acetyloxy)-2-(2-guanidino-ethoxy)-8-[(1R)-1,2-dimethylpropyl]-1,6a,8,10a-tetramethyl-1,3,4,6,6a,7,8,9,10,10a,10b, 11,12,12a-tetradecahydro-2H-1,4a-(methanooxymethano)chrysene-7-carboxylic acid]"
5,7.60,"CC(=O)O[C@@H]1C[C@@]23COC[C@](C)([C@@H]2CC[C@H]2C3=CC[C@@]3(C)[C@H](C(=O)O)[C@@](C)([C@H](C)C(C)C)CC[C@]23C)[C@H]1OCCNCCCN [Example 8, (1S,2R,3R,4aR,6aS,7R,8R,10aR,10bR,12aR)-3-(acetyloxy)-2-[2-(3-aminopropylamino)-ethoxy]-8-[(1R)-1,2-dimethylpropyl]-1,6a,8,10a-tetramethyl-1,3,4,6,6a,7,8,9,10,10a,10b,11,12,12a-tetradecahydro-2H-1,4a-(methanooxymethano)chrysene-7-carboxylic acid]"
6,7.22,"CC(=O)O[C@@H]1C[C@@]23COC[C@](C)(C2CC[C@H]2C3=CC[C@@]3(C)[C@H](C(=O)O)[C@@](C)([C@H](C)C(C)C)CC[C@]23C)[C@H]1OCCNC[C@@H](N)CCCCN (stereo partly drawn) [Example 21, (1S,2R,3R,4aR,6aS,7R,8R,10aR,10bR,12aR)-3-(acetyloxy)-2-[2-((S)-2,6-diaminohexylamino)-ethoxy]-8-[(1R)-1,2-dimethylpropyl]-1,6a,8,10a-tetramethyl-1,3,4,6,6a,7,8,9,10,10a,10b,11,12,12a-tetradecahydro-2H-1,4a-(methanooxymethano)chrysene-7-carboxylic acid]"
7,7.48,"CC(=O)O[C@@H]1C[C@@]23COC[C@](C)(C2CC[C@H]2C3=CC[C@@]3(C)[C@H](C(=O)O)[C@@](C)([C@H](C)C(C)C)CC[C@]23C)[C@H]1OCCNC(=N)NC(C)(C)C (stereo partly drawn) [Example 24, (1S,2R,3R,4aR,6aS,7R,8R,10aR,10bR,12aR)-3-(acetyloxy)-2-[2-(N′-tert-butylguanidino)-ethoxy]-8-[(1R)-1,2-dimethylpropyl]-1,6a,8,10a-tetramethyl-1,3,4,6,6a,7,8,9,10,10a,10b,11,12,12a-tetradecahydro-2H-1,4a-(methanooxymethano)chrysene-7-carboxylic acid]"
8,7.32,"CC(=O)O[C@@H]1C[C@@]23COC[C@@](C)([C@@H]2CC[C@H]2C3=CC[C@@]3(C)[C@H](C(=O)O)[C@@](C)([C@H](C)C(C)C)CC[C@]23C)[C@H]1OCCCN [Example 35, (1S,2R,3R,4aR,6aS,7R,8R,10aR,10bR,12aR)-3-(acetyloxy)-2-(3-aminopropoxy)-8-[(1R)-1,2-dimethylpropyl]-1,6a,8,10a-tetramethyl-1,3,4,6,6a,7,8,9,10,10a,10b,11,12,12a-tetradecahydro-2H-1,4a-(methanooxymethano)chrysene-7-carboxylic acid]"
9,6.21,"CC(=O)O[C@@H]1C[C@@]23COC[C@](C)([C@@H]2CC[C@H]2C3=CC[C@@]3(C)[C@H](C(=O)O)[C@@](C)([C@H](C)C(C)C)CC[C@]23C)[C@H]1OCC(O)(CO)CO [Example 44, (1S,2R,3R,4aR,6aS,7R,8R,10aR,10bR,12aR)-3-(acetyloxy)-2-(2,3-dihydroxy-2-hydroxymethylpropoxy)-8-[(1R)-1,2-dimethylpropyl]-1,6a,8,10a-tetramethyl-1,3,4,6,6a,7,8,9,10,10a,10b,11,12,12a-tetradecahydro-2H-1,4a-(methanooxymethano)chrysene-7-carboxylic acid]"
10,7.11,"CC(=O)O[C@@H]1C[C@@]23COC[C@](C)([C@@H]2CC[C@H]2C3=CC(=O)[C@@]3(C)[C@H](C(=O)O)[C@@](C)([C@H](C)C(C)C)CC[C@]23C)[C@H]1OCCN [Example 47, (1S,2R,3R,4aR,6aS,7R,8R,10aR,10bR,12aR)-3-(acetyloxy)-2-(2-aminoethoxy)-8-[(1R)-1,2-dimethylpropyl]-1,6a,8,10a-tetramethyl-6-oxo-1,3,4,6,6a,7,8,9,10,10a,10b,11,12,12a-tetradecahydro-2H-1,4a-(methanooxymethano)chrysene-7-carboxylic acid]"
11,7.54,"CC(=O)O[C@@H]1C[C@@]23COC[C@](C)([C@@H]2CC[C@H]2C3=CC(=O)[C@@]3(C)[C@H](C(=O)O)[C@@](C)([C@H](C)C(C)C)CC[C@]23C)[C@H]1OCCNC(=N)N [Example 48, (1S,2R,3R,4aR,6aS,7R,8R,10aR,10bR,12aR)-3-(acetyloxy)-2-(2-guanidinoethoxy)-8-[(1R)-1,2-dimethylpropyl]-1,6a,8,10a-tetramethyl-6-oxo-1,3,4,6,6a,7,8,9,10,10a,10b,11,12,12a-tetradecahydro-2H-1,4a-(methanooxymethano)chrysene-7-carboxylic acid]"

row,Compound,pIC50
1,"CC(=O)O[C@@H]1C[C@@]23COC[C@](C)(C2CC[C@H]2C3=CC[C@@]3(C)[C@H](C(=O)O)[C@@](C)([C@H](C)C(C)C)CC[C@]23C)[C@H]1OCCCCN (stereo partly drawn) [Example 40, (1S,2R,3R,4aR,6aS,7R,8R,10aR,10bR,12aR)-3-(acetyloxy)-2-(4-aminobutoxy)-8-[(1R)-1,2-dimethylpropyl]-1,6a,8,10a-tetramethyl-1,3,4,6,6a,7,8,9,10,10a,10b,11,12,12a-tetradecahydro-2H-1,4a-(methanooxymethano)chrysene-7-carboxylic acid]",7.29
